Data taken from the supplement of paper PMC10307832.

compound: CC1CC(=O)N(C2=CN=C(N=C2N1C3CCCC3)NC4=C(C=C(C=C4)C(=O)NC5CCN(CC5)C)OC)C [NPK76-II-72-1] + COc1cccc2cc(-c3nc([C@H]4CC[C@H](C(=O)O)CC4)n4ncnc(N)c34)[nH]c12 [OSI-027] (partner 0.5 µM); assay: relative viability (nuclei count vs DMSO), 5 days (fraction); higher = more cells survive; conditions: first compound 0.01 µM
In short: (§1)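 Lung cancer cell lines in 1536-well plates got either a single drug or a fixed anchor-drug dose together with five library-drug doses (not always all listed) in √10 steps, by pin tool, on the day after seeding. Nuclei were counted after 5 days, and relative viability is the treated-to-vehicle ratio of nuclei counts. Values are medians of duplicate plates.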

Cell Line	relative viability
NCI-H522	0.72
NCI-H1623	0.422
NCI-H727	0.496
NCI-H1650	0.609
NCI-H1993	0.532
SW 1573	0.704
NCI-H838	0.323
LCLC-103H	0.458
NCI-H520	0.358
NCI-H2126	0.716
EMC-BAC-2	0.372
NCI-H2085	0.577
HCC-366	0.939
NCI-H1666	0.802
NCI-H596	0.873
LK-2	0.157
NCI-H2087	0.486
NCI-H2342	0.632
SK-MES-1	0.585
H3255	0.445
COR-L23	0.645
COR-L 105	0.644
LOU-NH91	0.667
ChaGo-K-1	0.561
NCI-H2170	0.73
NCI-H1648	0.239
NCI-H1563	0.698

same assay, conditions: first compound 0.03162 µM

Cell Line	relative viability
NCI-H522	0.969
NCI-H1623	0.405
NCI-H727	0.637
NCI-H1650	0.716
NCI-H1993	0.534
SW 1573	0.65
NCI-H838	0.363
LCLC-103H	0.41
NCI-H520	0.265
NCI-H2126	0.734
EMC-BAC-2	0.351
NCI-H2085	0.773
HCC-366	0.998
NCI-H1666	0.871
NCI-H596	0.666
LK-2	0.227
NCI-H2087	0.644
NCI-H2342	0.572
SK-MES-1	0.617
H3255	0.483
COR-L23	0.858
COR-L 105	0.724
LOU-NH91	0.704
ChaGo-K-1	0.622
NCI-H2170	0.759
NCI-H1648	0.244
NCI-H1563	0.804

same assay, conditions: first compound 0.1 µM

Cell Line	relative viability
NCI-H522	0.681
NCI-H1623	0.432
NCI-H727	0.602
NCI-H1650	0.576
NCI-H1993	0.51
SW 1573	0.603
NCI-H838	0.385
LCLC-103H	0.477
NCI-H520	0.238
NCI-H2126	0.678
EMC-BAC-2	0.391
NCI-H2085	0.68
HCC-366	1.08
NCI-H1666	0.82
NCI-H596	0.748
LK-2	0.206
NCI-H2087	0.491
NCI-H2342	0.632
SK-MES-1	0.583
H3255	0.531
COR-L23	0.864
COR-L 105	0.718
LOU-NH91	0.713
ChaGo-K-1	0.582
NCI-H2170	0.716
NCI-H1563	0.739

same assay, conditions: first compound 0.3162 µM

Cell Line	relative viability
NCI-H522	0.623
NCI-H1623	0.362
NCI-H727	0.564
NCI-H1650	0.414
NCI-H1993	0.528
SW 1573	0.599
NCI-H838	0.395
LCLC-103H	0.439
NCI-H520	0.257
NCI-H2126	0.738
EMC-BAC-2	0.361
NCI-H2085	0.644
HCC-366	0.863
NCI-H1666	0.777
NCI-H596	0.691
LK-2	0.201
NCI-H2087	0.513
NCI-H2342	0.435
SK-MES-1	0.661
H3255	0.416
COR-L23	0.775
COR-L 105	0.609
LOU-NH91	0.654
ChaGo-K-1	0.63
NCI-H2170	0.493
NCI-H1563	0.749

same assay, conditions: first compound 1 µM

Cell Line	relative viability
NCI-H522	0.846
NCI-H1623	0.461
NCI-H727	0.668
NCI-H1650	0.738
NCI-H1993	0.549
SW 1573	0.664
NCI-H838	0.442
LCLC-103H	0.413
NCI-H520	0.305
NCI-H2126	0.796
EMC-BAC-2	0.415
NCI-H2085	0.771
HCC-366	0.888
NCI-H1666	0.975
NCI-H596	0.67
LK-2	0.233
NCI-H2087	0.645
NCI-H2342	0.58
SK-MES-1	0.742
H3255	0.588
COR-L23	0.764
COR-L 105	1.09
LOU-NH91	0.813
ChaGo-K-1	0.653
NCI-H2170	0.798
NCI-H1648	0.26
NCI-H1563	0.778

compound: CC1CC(=O)N(C2=CN=C(N=C2N1C3CCCC3)NC4=C(C=C(C=C4)C(=O)NC5CCN(CC5)C)OC)C [NPK76-II-72-1] + N=C(N)NC(=N)NCCc1ccccc1 [Phenformin] (partner 250 µM); assay: as above; conditions: first compound 0.01 µM
In short: as §1

Cell Line	relative viability
NCI-H522	0.557
NCI-H1623	0.562
NCI-H727	0.49
NCI-H1650	0.361
NCI-H1993	0.55
SW 1573	0.33
NCI-H838	0.532
LCLC-103H	0.273
NCI-H520	0.526
NCI-H2126	0.52
EMC-BAC-2	0.521
NCI-H2085	0.765
HCC-366	0.593
NCI-H1666	0.509
NCI-H596	0.649
LK-2	0.379
NCI-H2087	0.42
NCI-H2342	0.606
SK-MES-1	0.649
H3255	0.365
COR-L23	0.397
COR-L 105	0.491
LOU-NH91	0.621
ChaGo-K-1	0.472
NCI-H2170	0.412
NCI-H1563	0.686

same assay, conditions: first compound 0.03162 µM

Cell Line	relative viability
NCI-H522	0.732
NCI-H1623	0.563
NCI-H727	0.435
NCI-H1650	0.374
NCI-H1993	0.49
SW 1573	0.438
NCI-H838	0.585
LCLC-103H	0.363
NCI-H520	0.632
NCI-H2126	0.532
EMC-BAC-2	0.546
NCI-H2085	0.735
HCC-366	0.669
NCI-H1666	0.581
NCI-H596	0.777
LK-2	0.583
NCI-H2087	0.543
NCI-H2342	0.472
SK-MES-1	0.718
H3255	0.326
COR-L23	0.453
COR-L 105	0.541
LOU-NH91	0.709
ChaGo-K-1	0.575
NCI-H2170	0.432
A549	0.136
NCI-H1563	0.606

same assay, conditions: first compound 0.1 µM

Cell Line	relative viability
NCI-H522	0.639
NCI-H1623	0.622
NCI-H727	0.481
NCI-H1650	0.468
NCI-H1993	0.515
SW 1573	0.33
NCI-H838	0.657
LCLC-103H	0.342
NCI-H520	0.46
NCI-H2126	0.508
EMC-BAC-2	0.54
NCI-H2085	0.682
HCC-366	0.65
NCI-H1666	0.577
NCI-H596	0.789
LK-2	0.504
NCI-H2087	0.397
NCI-H2342	0.675
SK-MES-1	0.646
H3255	0.376
COR-L23	0.491
COR-L 105	0.409
LOU-NH91	0.706
ChaGo-K-1	0.544
NCI-H2170	0.402
A549	0.222
NCI-H1563	0.637

same assay, conditions: first compound 0.3162 µM

Cell Line	relative viability
NCI-H522	0.563
NCI-H1623	0.324
NCI-H727	0.411
NCI-H1650	0.349
NCI-H1993	0.553
SW 1573	0.319
NCI-H838	0.629
LCLC-103H	0.329
NCI-H520	0.519
NCI-H2126	0.525
EMC-BAC-2	0.55
NCI-H2085	0.668
HCC-366	0.559
NCI-H1666	0.584
NCI-H596	0.782
LK-2	0.206
NCI-H2087	0.398
NCI-H2342	0.394
SK-MES-1	0.643
H3255	0.31
COR-L23	0.434
COR-L 105	0.474
LOU-NH91	0.563
ChaGo-K-1	0.476
NCI-H2170	0.404
A549	0.155
NCI-H1563	0.656

same assay, conditions: first compound 1 µM

Cell Line	relative viability
NCI-H522	0.699
NCI-H1623	0.622
NCI-H727	0.672
NCI-H1650	0.396
NCI-H1993	0.521
SW 1573	0.452
NCI-H838	0.556
LCLC-103H	0.342
NCI-H520	0.598
NCI-H2126	0.557
EMC-BAC-2	0.634
NCI-H2085	0.695
HCC-366	0.607
NCI-H1666	0.583
NCI-H596	0.774
LK-2	0.561
NCI-H2087	0.498
NCI-H2342	0.623
SK-MES-1	0.722
H3255	0.37
